Consider one compound from article PMC7487798, “Glutaredoxin 1 Deficiency Leads to Microneme Protein-Mediated Growth Defects in Neospora caninum” (Frontiers in Microbiology, 2020).

This assay addresses T1, NcGrx1 (rNcGrx1) (Neospora caninum, UniProt F0VCE0).
T1 construct: gene NCLIV_038390; recombinant NcGrx1; dithiol CPYC active site
In words: HED assay, coupled to glutathione reductase, NADPH consumption at […] nm. It counts as biochemical. As to conditions: 0.05-2 mM HED, 600 nM enzyme, 1 mM GSH, 200 μM NADPH, 100 mM potassium phosphate, 1 mM EDTA, pH 7.0, 25 °C; HED preincubated 3 min with GSH to form the mixed disulfide.

The structures appear in SMILES notation.

T1 sequence (F0VCE0 entry or part of it): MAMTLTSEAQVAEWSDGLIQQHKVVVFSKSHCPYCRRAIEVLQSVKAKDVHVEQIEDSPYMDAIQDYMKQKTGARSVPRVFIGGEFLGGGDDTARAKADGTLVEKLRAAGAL

As for `OCCSSCCO` [β-hydroxyethyl disulfide], the Km worked out at 208 ± 23.9 µM.
